Results on 2 molecules are retold here after paper PMC3830718 (Toxicology and applied pharmacology, 2013).

The format of data set [1] is in vivo, mice. As to conditions: mouse, kidney, intraperitoneal, 7.5 mg/kg, Metformin accumulation in the kidney.
A short description of a further data set: in vivo. The settings on record: mouse, AUC0–120min of metformin.
For data set [2] the following is noted: mouse, in vivo, 10 mg/kg.
The target of the next data set is T1, mouse Oct2 (mOct2) (Mus musculus, UniProt O70577).
T1 sequence (O70577 1-553): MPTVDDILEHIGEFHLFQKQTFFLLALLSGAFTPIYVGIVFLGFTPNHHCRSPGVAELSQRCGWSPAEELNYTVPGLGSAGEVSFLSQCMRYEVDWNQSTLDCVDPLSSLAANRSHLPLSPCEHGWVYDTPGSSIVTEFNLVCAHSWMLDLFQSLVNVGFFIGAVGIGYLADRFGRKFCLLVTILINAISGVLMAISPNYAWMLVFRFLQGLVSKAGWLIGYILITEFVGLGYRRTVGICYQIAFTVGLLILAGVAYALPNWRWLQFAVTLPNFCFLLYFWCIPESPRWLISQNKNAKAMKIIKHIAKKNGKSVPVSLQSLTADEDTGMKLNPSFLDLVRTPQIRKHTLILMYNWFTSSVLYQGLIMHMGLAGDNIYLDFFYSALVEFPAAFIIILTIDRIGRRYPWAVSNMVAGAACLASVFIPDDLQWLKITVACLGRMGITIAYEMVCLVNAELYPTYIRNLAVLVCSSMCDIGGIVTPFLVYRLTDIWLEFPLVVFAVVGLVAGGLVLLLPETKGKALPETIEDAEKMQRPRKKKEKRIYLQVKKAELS
Briefly: Inhibition of metformin accumulation in HEK-293 cells stably expressing mOct2. Type of data set: cell-based.

For the next data set, the target named is mouse Mate1 (mMate1) (Mus musculus, UniProt Q8K0H1). In words: Inhibition of metformin accumulation in HEK-293 cells stably expressing mMate1. The format is cell-based.
mouse Mate1 (mMate1), sequence (Q8K0H1 whole entry): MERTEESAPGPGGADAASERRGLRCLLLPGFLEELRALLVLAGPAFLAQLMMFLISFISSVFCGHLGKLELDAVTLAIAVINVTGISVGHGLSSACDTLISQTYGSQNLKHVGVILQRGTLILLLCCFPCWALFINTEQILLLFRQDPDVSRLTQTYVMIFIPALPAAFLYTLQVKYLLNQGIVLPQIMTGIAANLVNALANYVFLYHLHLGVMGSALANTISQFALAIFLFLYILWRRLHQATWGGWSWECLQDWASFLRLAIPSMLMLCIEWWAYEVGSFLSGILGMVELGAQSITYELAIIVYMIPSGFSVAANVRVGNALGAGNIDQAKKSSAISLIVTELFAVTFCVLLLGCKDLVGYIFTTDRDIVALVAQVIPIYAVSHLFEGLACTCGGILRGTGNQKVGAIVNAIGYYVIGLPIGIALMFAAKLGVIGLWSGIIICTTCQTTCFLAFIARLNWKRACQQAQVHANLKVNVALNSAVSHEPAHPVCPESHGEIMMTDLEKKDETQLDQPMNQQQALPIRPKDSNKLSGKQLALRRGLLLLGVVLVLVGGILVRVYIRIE

Molecules are shown by their SMILES. Read-outs that look alike come from different tables or passages of the source.

One may read the AUC(0-t) as exposure summed from dosing to a finite time, without extrapolation to infinity. A lower AUC(0-t) goes with less exposure. With `CN(C)C(=N)N=C(N)N` [metformin], the concentration at 30 min in data set [1] (Mate1−/− mice, saline (Fig. 4A)) was 917 ± 89.6 ng/g; in data set [1] (wild-type mice, saline, genotype study (Fig. 4A)) it was 114 ± 21.8 ng/g. In the data set “in vivo”, this molecule had an AUC(0-t) of 2030 ng·h/mL.
A word on the Ki: it is the dissociation constant of the complex between target and ligand, obtained from inhibition or displacement. Lower therefore signals a stronger hold on the target. On to `Cc1nccn1CC1CCc2c(c3ccccc3n2C)C1=O` (stereo not drawn) [ondansetron], for which the “Effect on hepatic platinum accumulation” value in data set [2] is “did not observe a significant effect”. Further, the inhibition constant (Ki) at mouse Oct2 (mOct2) is 3500 nM; on mouse Mate1 (mMate1), 70 nM.
